Three molecules from US12344587B2, “Synthetic retinoids for use in RAR activation” (UNIVERSITY OF DURHAM, priority 2019, dated 2025) can be followed below.

For assay [1], the system named is retinoic acid response element (RARE). Briefly: X-Gal RA based reporter assay (genomic activity). It is filed as cell-based. The conditions noted are these: for Genomic Activity (X-Gal RA Based Reporter Assay) Efficacy (Emax) / EC50: Sil-15 reporter cells, overnight incubation; for EC50: read-out: Genomic Activity (X-Gal RA Based Reporter Assay) Potency (EC50); for Genomic activity and potency compared to retinoic acid (ATRA): X-Gal assay, versus ATRA. On the procedure:
The genomic activity of synthetic retinoids was evaluated by determining their efficiency of inducing transcription using the X-Gal Assay. The X-Gal Assay utilizes Sil-15 reporter cells in which the transcription of the LacZ gene is under control of a promoter linked to a retinoic acid response element (RARE). After treatment of the reporter cells with retinoids, the ability of the compounds to induce transcription can be attained by monitoring and quantifying the activity of β-galactosidase produced by the reporter cells.
Sil-15 cells were plated at 100,000 cells per well in 96-well plates coated in 0.1% gelatin. The following day, serial dilutions of retinoid ligands, prepared in Dulbecco's Modified Eagle's Medium (DMEM) containing 10% foetal calf serum (FCS) were added at concentrations from 10^−6 M to 10^−14 M and the plates were incubated overnight. All concentrations for the ATRA standard curve and the other retinoid ligands were tested in triplicate.
The next day, the assay plates were washed twice with phosphate buffered saline (PBS), fixed with 100 μl per well of 1% glutaraldehyde and 1 mM MgCl2 in PBS for 15 minutes and washed twice with PBS. β-galactosidase activity was detected by the addition of 100 μl of freshly-prepared 0.2% X-Gal in 1 mM MgCl2, 3.3 mM potassium ferricyanide and 3.3 mM potassium ferrocyanide in PBS per well. Plates were incubated for 6 hours at 37° C. in 5% CO2 and colour change was detected by reading the plates at 650 nm on an Emax Precision Microplate Reader (Molecular Devices).
In general terms: A reporter such as luciferase makes a cellular process visible.

The subject of assay [2] is rat mixed primary neuronal/glial cultures. The experiment in a line: Regulation of Alzheimer's disease related genes (qPCR). The conditions noted are these: 10 nM retinoid 24 hours after 1 μg/ml lipopolysaccharide 6 hours. It is filed as cell-based. The method, then: To examine the influence retinoids may have on the expression of genes involved in Alzheimer's disease, the expression of a group of Alzheimer's-related genes in rat mixed primary neuronal/glial cultures was assessed following retinoid treatment.
Approximately 300,000 rat neuronal/glial cells were treated first with 1 μg/ml lipopolysaccharide (Sigma-Aldrich) for 6 hours to induce inflammation. Following the induction of inflammation, cells were treated with 10 nM retinoids for 24 hours. […] Following treatment, RNA was extracted from the treated cells for qPCR analysis.
Total RNA was extracted using a Qiagen RNeasy mini kit (CAT # 74104, Qiagen) according to the manufacturer's protocol. Briefly, cell and brain tissue samples were homogenized in 350 μl and 1200 μl of RLT buffer mixed with β-ME (1 ml buffer: 10 μl β-ME ratio) respectively. Then, samples were centrifuged for 3 min at 13,000 rpm. The supernatant was first mixed with 70% ethanol at a 1:1 volume ratio (CAT # E7023, Sigma-Aldrich) before transferring it to a spin column placed in a collection tube. The samples were centrifuged for 1 min at 10,000 rpm to bind RNA to the membrane of the spin column.
For the on-column DNase digestion, the samples in the columns were washed with 350 μl RW1 buffer and centrifuged at 10,000 rpm for 1 min. Then, 80 μl of the DNase mixture (10 μl DNase enzyme with 70 μl RDD buffer; CAT # 79254, Qiagen) was added above each sample. Samples were incubated at room temperature for 15 min before adding 350 μl RW1 buffer. Samples were centrifuged at 10,000 rpm for 1 min.
Afterwards, 500 μl of RPE buffer (mixed with 100% ethanol at 1:4 ratio) was added above the samples. Samples were centrifuged for 1 min at 10,000 rpm (the step was repeated 2 times). The spin columns were centrifuged again at 13,000 rpm for 1 min to dry the membranes. The spin columns were removed from the collection tubes and placed inside another 1.5 ml RNase free collection tubes. The RNA was eluted by adding 30 μl of RNase free water directly to the spin column membrane. The samples were incubated 5 min at room temperature before spinning them for 1 min at 10,000 rpm.
RNA concentration was measured using a NanoDrop™ 2000c spectrophotometer (Thermo Fisher Scientific). The instrument was calibrated using the RNase free water used to elute the RNA as a blank and 2 μl was used of each RNA sample. RNA samples were stored in a −70° C. freezer to minimize RNA degradation.
qPCR reactions were performed using PerfeCTa SYBR Green SuperMix (CAT # 733-1246, VWR). 10 μl of reaction mix was added to each well of a 384-well plate (CAT # 04729749001, Roche) in triplicate. Each reaction contained 2 μl of 4 times diluted cDNA template, 5 μl 2×SYBR green mix and 250 nM primers.
Primers were designed using Primer-BLAST with melting temperatures of about 60° C. Before using them in qPCR, the primers were checked for specificity by PCR and the PCR products were sent for sequencing.
Standard curves (made using 5-fold dilutions of the stock cDNA) and blank controls were run for all sets of primers tested in qPCR. The plates were then sealed and centrifuged briefly to ensure all the reagents were at the base of the wells. The plates were run on a Roche LightCycler 480 that was programmed to hold the plate at 95° C. for 5 min. The qPCR then ran for 45 cycles of 95° C. for 15 seconds (s), 60° C. for 15 s and 72° C. for 15 s. Afterwards, the melting curve was obtained by running the plate at 95° C. for 5 s followed by 58° C. for 1 min.
Results were analysed using the delta delta CT method within the LightCycler 480 1.5 software. The expression of genes of interest was normalized to the appropriate reference gene according to each experiment.
For orientation: Quantitative PCR measures a nucleic acid by following its amplification.

Each structure is given as a SMILES string.

As a reminder, the EC50 is the concentration needed to bring the measured effect to its halfway point. `CC1(C)CCC(C)(C)c2cc(C#Cc3ccc(C(=O)O)cc3F)ccc21` [DC526, 3-Fluoro-4-[2-(5,5,8,8-tetramethyl-5,6,7,8-tetrahydronaphthalen-2-yl)ethynyl]benzoic acid]: in assay [1], the “Genomic Activity (X-Gal RA Based Reporter Assay) Efficacy (Emax)” value (from here on “Genomic Activity … (Emax)”) amounted to 149.1; the EC50 is 0.0581 nM; the “Genomic activity and potency compared to retinoic acid (ATRA)” value was “increased genomic activity and potency”. In assay [2], the “Expression of inflammation genes (Ccl5, TNFα and Nos2)” value (“Expression of inflammation genes” below) is “downregulated”; the “Expression of neuroprotection genes (Abca1, Abcg1, Igf1 and Igf2)” value (“Expression of neuroprotection genes” below) is “upregulated”; the “Expression of non-amyloidogenic pathway genes (Nep, Ide and Adam10)” value was “upregulated”.

For the molecule `CC1(C)CCC(C)(C)c2cc(C#Cc3ccc(C(=O)O)nc3)ccc21` [DC528, 5-[2-(5,5,8,8-tetramethyl-5,6,7,8-tetrahydronaphthalen-2-yl)ethynyl]pyridine-2-carboxylic acid], in assay [1], the “Genomic Activity … (Emax)” value was 206.5; the EC50 was 0.146 nM; the “Genomic activity and potency compared to retinoic acid (ATRA)” value was “increased genomic activity and potency”. Moreover, in assay [2], the “Expression of inflammation genes” value is “downregulated”; the “Expression of neuroprotection genes” value is reported as “upregulated”; the “Expression of non-amyloidogenic pathway genes (Nep, Ide and Adam10)” value is “upregulated”.

`CC1(C)CCC(C)(C)c2nc(C#Cc3ccc(C(=O)O)cc3)cnc21` [DC645, 4-[2-(5,5,8,8-Tetramethyl-5,6,7,8-tetrahydroquinoxalin-2-yl)ethynyl]benzoic acid]: in assay [1], the “Genomic Activity … (Emax)” value came to 185.9; the EC50 was 0.0697 nM; the “Genomic activity and potency compared to retinoic acid (ATRA)” value was “increased genomic activity and potency”. In assay [2], the “Expression of inflammation genes” value is “downregulated”; the “Expression of neuroprotection genes” value was “upregulated”; the “Expression of non-amyloidogenic pathway genes (Nep, Ide and Adam10)” value is given as “upregulated”.
